Columns and labels:
17β-HSD2 = target: T1, 17β-HSD2 (Homo sapiens, UniProt P37059); assay: Inhibition of 17β-HSD2 (estradiol to estrone, radio-HPLC); assay type: biochemical; conditions: human placenta microsome fraction, 500 nM estradiol, NAD+ 1500 μM
T1 construct: from tissue; host or cells: human placenta, microsome fraction
T1 sequence (P37059 1-387): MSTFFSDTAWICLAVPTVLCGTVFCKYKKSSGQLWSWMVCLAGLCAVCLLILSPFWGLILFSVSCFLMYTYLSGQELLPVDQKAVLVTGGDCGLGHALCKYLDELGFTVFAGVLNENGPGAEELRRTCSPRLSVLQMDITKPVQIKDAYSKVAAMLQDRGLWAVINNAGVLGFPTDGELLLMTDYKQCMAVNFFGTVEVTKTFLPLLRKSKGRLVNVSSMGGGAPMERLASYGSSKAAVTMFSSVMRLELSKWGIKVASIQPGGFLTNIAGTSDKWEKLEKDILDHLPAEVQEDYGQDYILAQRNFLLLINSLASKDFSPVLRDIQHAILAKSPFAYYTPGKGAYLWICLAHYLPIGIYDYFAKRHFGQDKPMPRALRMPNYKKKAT
Method: Determination of the inhibitory activity of the potential inhibitors: Inhibition of 17β-HSD1 and 17β-HSD2: In both cases, human placenta served as the enzyme source (Lin, S.-X. et al., J. Biol. Chem., 267: 16182-16187 (1992)).
In the 17β-HSD2 test, the natural cosubstrate NAD^+ is employed at a final concentration of 1500 μM. The microsome fraction is diluted in test buffer, so that a control conversion of 20 to 30% results (about 1:350). As the substrate, estradiol in a final concentration of 500 nM is used, of which 3 nM is tritiated. 2,4,6,7-[^3H]estradiol is also purchased from Perkin-Elmer, Boston. The inhibitor is added as a solution in DMSO (control: pure DMSO without inhibitor; the final concentration of DMSO in the assay is […]). After the addition of the substrate, incubation is performed at 37° C. for 20 minutes. The reaction is quenched by the addition of HgCl2 (final concentration of HgCl2: 0.166 mM).
(§1) After the reaction, the substrate and product are extracted by partitioning with ether, separated by chromatography (HPLC) and quantified by means of radiodetection.

CaCo-2 cells = assay: CaCo2 transport assay; assay type: in vitro ADME; conditions: 50 μM in donor compartment
Method: (§2) Performance of selected compounds in a CaCo2 assay: Caco-2 cell culture and transport experiments were performed according to Yee (Yee, S., Pharm. Res., 14(6): 763-766 (1997)), but slight modifications were introduced. The cultivation times were reduced from 21 to 10 days by increasing the sowing density from 6.3·10^4 to 1.65·10^5 cells per well. […] The initial concentration of the compounds in the donor compartment was 50 μM (in buffer with 1% ethanol or DMSO). Samples were taken from the acceptor side after 60, 120 and 180 min and from the donor side after 0 and 180 min. For glycoprotein P (P-gp) studies, bidirectional experiments were performed. The absorptive and secretory permeabilities (Papp (a-b) and Papp (b-a)) were determined. Thus, erythromycin was used as a substrate, and verapamil was used as an inhibitor of P-gp. Each experiment was performed in triplicate. The integrity of the monolayer was determined by means of TEER (transepithelial electric resistance) and the permeability for each assay was determined using Lucifer Yellow. All samples of the CaCo-2 transport experiments were analyzed by means of LC/MS/MS after dilution with buffer (1:1 with 2% acetic acid). The apparent permeability coefficient (Papp) was calculated by means of the formula given below, where dQ/dt represents the recovery rate of the mass in the acceptor compartment, A represents the surface area of the transwell membrane, and c0 represents the initial concentration in the donor compartment.

CaCo2 transport assay = assay type: in vitro ADME; conditions: human, Caco-2; 50 μM in donor compartment; read-out: Papp [cm/sec ± rel. SD]
Method: as §2

17β-HSD1 = target: T2, 17β-HSD1 (Homo sapiens, UniProt P14061); assay: Inhibition of 17β-HSD1 (estrone to estradiol, radio-HPLC); assay type: biochemical; conditions: for IC50: human placenta enzyme, 500 nM estrone, NADH 500 μM; for Selectivity IC50 (17β-HSD2)/IC50 (17β-HSD1): ratio of IC50 values
T2 construct: In both cases, human placenta served as the enzyme source; from tissue; host or cells: human placenta
T2 sequence (P14061 1-328): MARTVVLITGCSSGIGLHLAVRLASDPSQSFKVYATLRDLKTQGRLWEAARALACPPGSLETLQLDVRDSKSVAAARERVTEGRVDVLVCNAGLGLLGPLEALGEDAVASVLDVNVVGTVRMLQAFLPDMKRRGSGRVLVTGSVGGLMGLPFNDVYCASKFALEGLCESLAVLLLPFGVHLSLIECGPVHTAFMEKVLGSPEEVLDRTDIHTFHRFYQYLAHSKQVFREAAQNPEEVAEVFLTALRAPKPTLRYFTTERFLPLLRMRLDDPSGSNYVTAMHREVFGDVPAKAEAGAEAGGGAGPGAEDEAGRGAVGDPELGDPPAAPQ
Method: In the 17β-HSD1 test, NADH is employed as a cosubstrate at a final concentration of 500 μM in order to avoid the product inhibition occurring with NADPH. The enzyme preparation is diluted with test buffer to such an extent that the control conversion is 10 to maximally 20% (about 1:650). As the substrate, estrone in a final concentration of 500 nM is used, of which 3 nM is tritiated. 2,4,6,7-[^3H]estrone is purchased from Perkin-Elmer, Boston. The inhibitor is added as a solution in DMSO (control: pure DMSO without inhibitor; the final concentration of DMSO in the assay is 1% in all cases).
as §1

estrogen receptor α = target: T3, estrogen receptor α (Homo sapiens, UniProt P03372); assay: Affinity for the estrogen receptor α (RBA); assay type: binding; conditions: data not stated
T3 sequence (P03372 1-595): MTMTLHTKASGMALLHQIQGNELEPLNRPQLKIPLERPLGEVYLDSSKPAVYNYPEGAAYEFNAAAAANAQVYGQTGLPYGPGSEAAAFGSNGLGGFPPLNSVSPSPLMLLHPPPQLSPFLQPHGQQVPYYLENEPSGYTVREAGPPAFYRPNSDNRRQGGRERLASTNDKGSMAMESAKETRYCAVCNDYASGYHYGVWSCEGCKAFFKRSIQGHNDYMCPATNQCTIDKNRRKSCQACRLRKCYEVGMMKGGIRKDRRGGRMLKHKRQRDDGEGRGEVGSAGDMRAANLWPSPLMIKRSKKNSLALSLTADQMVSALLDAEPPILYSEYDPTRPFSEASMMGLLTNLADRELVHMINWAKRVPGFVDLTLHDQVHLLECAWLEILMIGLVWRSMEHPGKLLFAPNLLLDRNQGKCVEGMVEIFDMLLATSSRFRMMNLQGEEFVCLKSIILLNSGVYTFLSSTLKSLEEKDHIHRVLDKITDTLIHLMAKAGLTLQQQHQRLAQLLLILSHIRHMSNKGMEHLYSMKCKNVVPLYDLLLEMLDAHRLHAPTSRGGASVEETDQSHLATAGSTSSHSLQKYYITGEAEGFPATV
Method: Slight changes were made: The respective inhibitor was incubated at RT for 2 h with shaking.
The receptor affinities are established as RBA (relative binding affinity) values. The RBA value of the reference estradiol is set to 100%.

[1] = In vivo pharmacokinetics (rat), peroral cassette dosing; set-up: species or system Wistar rats; conditions: 10 mg/kg
Method: In vivo pharmacokinetics (rat): The compounds 29, 45, 47 and 59 and a reference compound were administered to adult male Wistar rats (n=4) perorally in a cassette dosing method (vehicle: Labrasol/water 1/1). The plasma profiles were established by means of LC-MS/MS.
• Cmax obs highest measured concentration • Cz last analytically quantifiable concentration • tmax obs time to reach the highest measured concentration • tz time to withdrawal of the last sample with analytically quantifiable concentration • t1/2z half life (determined from the slope of the declining portion of the concentration vs. time curve • AUC0-tz area below the concentration vs. time curve up to time tZ • AUC0-∞ area below the concentration vs. time curve, extrapolated to ∞

CYP2C19 = target: T4, CYP2C19 (Homo sapiens, UniProt P33261); assay: Inhibition of hepatic CYP enzymes: CYP2C19; assay type: biochemical
T4 construct: purchased Becton Dickinson GmbH (Heidelberg)
T4 sequence (P33261 whole entry): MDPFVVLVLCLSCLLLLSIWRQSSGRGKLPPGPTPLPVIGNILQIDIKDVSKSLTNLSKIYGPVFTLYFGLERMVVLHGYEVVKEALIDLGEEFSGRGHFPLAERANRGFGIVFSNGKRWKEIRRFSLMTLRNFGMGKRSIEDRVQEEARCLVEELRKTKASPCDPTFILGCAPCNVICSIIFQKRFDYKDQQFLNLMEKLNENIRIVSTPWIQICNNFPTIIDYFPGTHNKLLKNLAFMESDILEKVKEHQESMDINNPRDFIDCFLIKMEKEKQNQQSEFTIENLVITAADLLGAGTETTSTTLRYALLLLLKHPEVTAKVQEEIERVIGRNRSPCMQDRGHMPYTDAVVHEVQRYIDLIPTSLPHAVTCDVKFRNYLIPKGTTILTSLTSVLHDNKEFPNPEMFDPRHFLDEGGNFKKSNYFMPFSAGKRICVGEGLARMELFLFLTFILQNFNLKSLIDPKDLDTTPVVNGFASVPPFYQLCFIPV
Source text: (§3) Drug interactions (inhibition of hepatic CYP enzymes): The inhibition of six human hepatic cytochrome P450 enzymes by selected compounds was examined by means of the kit supplied by Becton Dickinson GmbH (Heidelberg).

CYP1A2 = target: T5, CYP1A2 (Homo sapiens, UniProt P05177); assay: Inhibition of hepatic CYP enzymes: CYP1A2; assay type: biochemical; conditions: read-out: CYP1A2 IC50 (mean ± SD)
T5 construct: purchased Becton Dickinson GmbH (Heidelberg)
T5 sequence (P05177 1-516): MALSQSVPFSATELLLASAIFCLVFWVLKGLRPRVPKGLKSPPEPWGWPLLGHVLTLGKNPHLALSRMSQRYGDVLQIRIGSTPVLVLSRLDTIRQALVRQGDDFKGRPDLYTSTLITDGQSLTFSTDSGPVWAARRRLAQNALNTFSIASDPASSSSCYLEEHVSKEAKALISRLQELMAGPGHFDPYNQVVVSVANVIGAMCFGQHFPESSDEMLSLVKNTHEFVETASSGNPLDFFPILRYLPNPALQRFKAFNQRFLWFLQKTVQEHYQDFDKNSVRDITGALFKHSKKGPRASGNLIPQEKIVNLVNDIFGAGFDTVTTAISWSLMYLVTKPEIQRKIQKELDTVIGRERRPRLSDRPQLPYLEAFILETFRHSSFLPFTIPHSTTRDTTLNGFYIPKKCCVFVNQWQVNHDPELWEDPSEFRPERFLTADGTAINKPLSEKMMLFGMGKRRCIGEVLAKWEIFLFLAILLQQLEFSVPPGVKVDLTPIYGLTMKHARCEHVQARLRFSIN
Source text: as §3

| IC50 (17β-HSD2) | Permeability (class in words) (CaCo-2 cells) | Papp at 180 min, 50 μM (CaCo2 transport assay) | IC50 (17β-HSD1) | Selectivity IC50 (17β-HSD2)/IC50 (17β-HSD1) (17β-HSD1) | Structure (SMILES) | also measured |
| --- | --- | --- | --- | --- | --- | --- |
| 1020 nM | medium-high | 7.9 ×10⁻⁶ cm/s | 570 nM | 1.8 | Oc1ccc(-c2cnc(-c3cccc(O)c3)o2)cc1 [Compound 8, 3-[5-(4-Hydroxyphenyl)-1,3-oxazole-2-yl]phenol] | – |
| 800 nM | medium-high | 7.3 ×10⁻⁶ cm/s | 560 nM | 1.4 | Oc1ccc(-c2cc(-c3cccc(O)c3)on2)cc1 [Compound 18, 3-[3-(4-Hydroxyphenyl)isoxazole-5-yl]phenol] | – |
| 4000 nM | medium-high | 7.8 ×10⁻⁶ cm/s | 50 nM | 80 | Oc1ccc(-c2cnc(-c3cccc(O)c3)s2)cc1 [Compound 19, 3-[5-(4-Hydroxyphenyl)-1,3-thiazole-2-yl]phenol] | – |
| 3100 nM | high | 11.7 ×10⁻⁶ cm/s | 180 nM | 17 | Oc1ccc(-c2ncc(-c3cccc(O)c3)s2)cc1 [Compound 20, 3-[2-(4-Hydroxyphenyl)-1,3-thiazole-5-yl]phenol] | – |
| – | – | – | 320 nM | – | Oc1ccc(-c2csc(-c3cccc(O)c3)n2)cc1 [Compound 23, 3-[4-(4-Hydroxyphenyl)-1,3-thiazole-2-yl]phenol] | affinity for the estrogen receptor (in words) (estrogen receptor α): negligible |
| – | – | – | – | – | Oc1ccc(-c2nc(-c3cccc(O)c3)cs2)cc1 [Compound 24, 3-[2-(4-Hydroxyphenyl)-1,3-thiazole-4-yl]phenol] | inhibition at 1 µM (17β-HSD1; read-out: inhibition of 17β-HSD1 at 1 μM): 49%; affinity for the estrogen receptor (in words) (estrogen receptor α): negligible |
| 1950 nM | high | 22 ×10⁻⁶ cm/s | 60 nM | 33 | Oc1ccc(-c2ccc(-c3cccc(O)c3)s2)cc1 [Compound 29, 3-[5-(4-Hydroxyphenyl)-2-thienyl]phenol] | tz (time of last sample with quantifiable concentration) [1]: 10.0 h; Cz (last analytically quantifiable concentration) ([1]; plasma): 6.56 ng/mL; AUC(0-t) ([1]; male, Wistar, plasma, po): 99.2 ng·h/mL; AUC(0-inf) ([1]; male, Wistar, plasma, po, extrapolated to ∞): 99.2 ng·h/mL; half-life ([1]; male, Wistar, plasma, po, read-out: t1/2z (half life) (converted)): 1.5 h; Tmax ([1]; male, Wistar, plasma, po, read-out: tmax obs (time to reach the highest measured concentration)): 8 h; Cmax ([1]; male, Wistar, po, plasma, read-out: Cmax obs (highest measured concentration)): 7.8 ng/mL |
| 1700 nM | high | – | 130 nM | – | Oc1ccc(-c2cc(-c3cccc(O)c3)cs2)cc1 [Compound 32, 3-[5-(4-Hydroxyphenyl)-3-thienyl]phenol] | IC50 (CYP2C19): 4430 ± 170 nM; IC50 (CYP1A2): 8680 ± 290 nM |
| 600 nM | medium | 3.6 ×10⁻⁶ cm/s | 180 nM | 3.3 | Oc1cccc(-c2nsc(-c3cccc(O)c3)n2)c1 [Compound 37] | – |
| 2200 nM | high | 12.6 ×10⁻⁶ cm/s | 1600 nM | 1.4 | Oc1ccc(-c2cccc(-c3ccc(O)cc3)c2)cc1 [Compound 41, [1,1′;3′,1″]Terphenyl-4,4″-diol] | – |
| – | high | 24.2 ×10⁻⁶ cm/s | 450 nM | – | Cc1cc(O)cc(-c2ccc(-c3ccc(O)cc3)s2)c1 [Compound 53, 3-[5-(4-Hydroxyphenyl)-2-thienyl]-5-methylphenol] | – |
